Series [1] in a line: Sensory evaluation of degree of sweetness relative to sugar. Conditions: for degrees of sweetness: relative to a degree of sweetness of a 4% aqueous sucrose solution; for degree of sweetness: sensory evaluation.
Description: ^3 Degree of sweetness relative to a degree of sweetness of a 4%
Series [2] can be described thus: Stability (half-life) in phosphate buffer of pH 3 at 70° C. The format is physicochemical. The conditions noted are these: acidic aqueous solution. The method, then: The peptides of the present invention may be 2 to 15 times as stable as aspartame when measured in a phosphate buffer of pH 3 at 70° C. This range in stability as compared to aspartame includes all specific values and subranges therebetween. The half-lives (in a phosphate buffer of pH 3 at 70° C.) of α-L-aspartyl-D-valine (R)-α-methylthiomethylbenzylamide, α-L-aspartyl-D-isoleucine (R)-α-methylthiomethylbenzylamide and α-L-aspartyl-D-valine (S)-α-methoxycarbonylmethylbenzylamide in an acidic aqueous solution were approximately 220 hours, 650 hours and 139 hours respectively.

Peptide text beside a SMILES is read from it.

In the case of `COC(=O)CC(NC(=O)[C@H](NC(=O)[C@@H](N)CC(=O)O)C(C)C)C1CCCCC1` (mixture of isomers) [Example 6, α-L-aspartyl-D-valine (RS)-α-cyclohexyl-β-methoxycarbonylethylamide], in series [1], the degrees of sweetness amounted to 400 and the “Degree of sweetness (relative to sugar)” value is listed as 400 times.

Consider `CC[C@@H](NC(=O)[C@@H](N)CC(=O)O)C(=O)NC(CC(=O)OC)c1ccccc1` (mixture of isomers) [Example 10, α-L-aspartyl-D-α-aminobutyric acid (RS)-α-methoxycarbonylmethylbenzylamide], for which, in series [1], the degrees of sweetness amounted to 800 and the “Degree of sweetness (relative to sugar)” value is 800 times.

For `CC[C@@H](NC(=O)[C@@H](N)CC(=O)O)C(=O)NC(CC(=O)OC)c1ccc(OC)cc1` (mixture of isomers) [Example 11], in series [1], the degrees of sweetness turned out to be 200 and the “Degree of sweetness (relative to sugar)” value came out at 200 times.

Regarding `CC[C@@H](NC(=O)[C@@H](N)CC(=O)O)C(=O)NC(CC(=O)OC)c1cccc2c1OCO2` (mixture of isomers) [Example 12], in series [1], the degrees of sweetness is on record as 250 and the “Degree of sweetness (relative to sugar)” value is 250 times.

Take `CC[C@@H](NC(=O)[C@@H](N)CC(=O)O)C(=O)NC(CC(=O)OC)c1ccc(O)cc1` (mixture of isomers) [Example 13]: in series [1], the degrees of sweetness is 200 and the “Degree of sweetness (relative to sugar)” value was determined as 200 times.

Take `CC[C@@H](NC(=O)[C@@H](N)CC(=O)O)C(=O)NC(CC(=O)OC)c1ccc(C)cc1` (mixture of isomers) [Example 14]: in series [1], the degrees of sweetness came to 200 and the “Degree of sweetness (relative to sugar)” value was determined as 200 times.

Turning to `CC[C@@H](NC(=O)[C@@H](N)CC(=O)O)C(=O)NC(CC(=O)OC)C1CCCCC1` (mixture of isomers) [Example 15, α-L-aspartyl-D-α-aminobutyric acid (RS)-α-cyclohexyl-β-methoxycarbonylethylamide], in series [1], the degrees of sweetness was 700 and the “Degree of sweetness (relative to sugar)” value was found to be 700 times.

As to `CC[C@@H](NC(=O)[C@H](CC(=O)O)NCCC(C)(C)C)C(=O)NC(CC(=O)OC)c1ccccc1` (mixture of isomers) [Example 18, N-3,3-dimethylbutyl-α-L-aspartyl-D-α-aminobutyric acid (RS)-α-methoxycarbonylmethylbenzylamide], in series [1], the degrees of sweetness is listed as 1250 and the “Degree of sweetness (relative to sugar)” value was 1,250 times.

In the case of `COC(=O)CC(NC(=O)[C@H](NC(=O)[C@H](CC(=O)O)NCCC(C)(C)C)C(C)C)c1ccccc1` (mixture of isomers) [Example 19, N-3,3-dimethylbutyl-α-L-aspartyl-D-valine (RS)-α-methoxycarbonylmethylbenzylamide], in series [1], the degrees of sweetness is 1250 and the “Degree of sweetness (relative to sugar)” value is 1,250 times.

Take `CC[C@@H](NC(=O)[C@H](CC(=O)O)NCCC(C)(C)C)C(=O)NC(CC(=O)OC)C1CCCCC1` (mixture of isomers) [Example 20, N-3,3-dimethylbutyl-α-L-aspartyl-D-α-aminobutyric acid (RS)-α-cyclohexyl-β-methoxycarbonylethylamide]: in series [1], the degrees of sweetness amounted to 1250 and the “Degree of sweetness (relative to sugar)” value is recorded as 1,250 times.

For orientation: half-life means how long it takes for the measured level to halve. Higher therefore signals slow loss. Regarding `CSC[C@H](NC(=O)[C@H](NC(=O)[C@@H](N)CC(=O)O)C(C)C)c1ccccc1` [Example 1, α-L-aspartyl-D-valine (R)-α-methylthiomethylbenzylamide], in series [1], the degrees of sweetness is on record as 3000, the “Degree of sweetness (relative to sugar)” value is 3,000 times and the degree of sweetness entry was “approximately 3,000 times that of sugar”. The half-life result in series [2] is “approximately 220 hours”.

As to `CSC[C@H](NC(=O)[C@@H](C)NC(=O)[C@@H](N)CC(=O)O)c1ccccc1` [Example 2, α-L-aspartyl-D-alanine (R)-α-methylthiomethylbenzylamide], in series [1], the degrees of sweetness was determined as 1000 and the “Degree of sweetness (relative to sugar)” value is on record as 1,000 times.

Regarding `CC[C@@H](NC(=O)[C@@H](N)CC(=O)O)C(=O)N[C@@H](CSC)c1ccccc1` [Example 3, α-L-aspartyl-D-α-aminobutyric acid (R)-α-methylthiomethylbenzylamide], in series [1], the degrees of sweetness was determined as 4000, the “Degree of sweetness (relative to sugar)” value is 4,000 times and the degree of sweetness result was “approximately 4,000 times that of sugar”.

On to `CC[C@@H](C)[C@@H](NC(=O)[C@@H](N)CC(=O)O)C(=O)N[C@@H](CSC)c1ccccc1` [Example 4, α-L-aspartyl-D-isoleucine (R)-α-methylthiomethylbenzylamide], for which, in series [1], the degrees of sweetness was 5000, the “Degree of sweetness (relative to sugar)” value was 5,000 times and the degree of sweetness result is “approximately 5,000 times that of sugar”. The compound also gave a half-life in series [2] of roughly 27.1 days.

For `COC(=O)C[C@H](NC(=O)[C@H](NC(=O)[C@@H](N)CC(=O)O)C(C)C)c1ccccc1` [Example 5, α-L-aspartyl-D-valine (S)-α-methoxycarbonylmethylbenzylamide], in series [1], the degrees of sweetness turned out to be 1500, the “Degree of sweetness (relative to sugar)” value is reported as 1,500 times and the degree of sweetness result was “approximately 1,500 times that of sugar”. Further, in series [2], the half-life was roughly 5.79 days.

Take `CC[C@@H](NC(=O)[C@@H](N)CC(=O)O)C(=O)NC1(c2ccccc2)CCCC1` [Example 7, α-L-aspartyl-D-α-aminobutyric acid α-phenylcyclopentylamide]: in series [1], the degrees of sweetness is given as 750 and the “Degree of sweetness (relative to sugar)” value turned out to be 750 times.

Take `CC(C)[C@@H](NC(=O)[C@@H](N)CC(=O)O)C(=O)NC1(c2ccccc2)CCCC1` [Example 8, α-L-aspartyl-D-valine α-phenylcyclopentylamide]: in series [1], the degrees of sweetness was determined as 1200, the “Degree of sweetness (relative to sugar)” value is given as 1,200 times and the degree of sweetness entry was “approximately 1,200 times that of sugar”.

As for `CC[C@@H](C)[C@@H](NC(=O)[C@@H](N)CC(=O)O)C(=O)NC(C)(C)c1ccccc1` [Example 9, α-L-aspartyl-D-isoleucine α,α-dimethylbenzylamide], in series [1], the degrees of sweetness is reported as 250 and the “Degree of sweetness (relative to sugar)” value worked out at 250 times.

As to `CC(C)[C@@H](NC(=O)[C@@H](N)CC(=O)O)C(=O)NC(C)(C)c1ccccc1` [Example 16, α-L-aspartyl-D-valine α,α-dimethylbenzylamide], in series [1], the degrees of sweetness is 500 and the “Degree of sweetness (relative to sugar)” value stood at 500 times.

On to `CSC[C@H](NC(=O)[C@H](NC(=O)[C@H](CC(=O)O)NCCC(C)(C)C)C(C)C)c1ccccc1` [Example 17, N-3,3-dimethylbutyl-α-L-aspartyl-D-valine (R)-α-methylthiomethylbenzylamide], for which, in series [1], the degrees of sweetness is 5000, the “Degree of sweetness (relative to sugar)” value is on record as 5,000 times and the degree of sweetness entry is listed as “approximately 5,000 times that of sugar”.

As to `COC(=O)[C@H](Cc1ccccc1)NC(=O)[C@@H](N)CC(=O)O` [aspartame, reference compound] (H-Asp-Phe-OMe), in series [2], the half-life entry is given as “approximately 23 hours”.

The record behind these values is patent US5958496A, “Aspartyl dipeptide amide derivatives and sweeteners” (Ajinomoto Co., Inc., priority 1996, dated 1999).
